From patent publication US9346849B2, “Amino sugar-bound anti-cancerous noble metal complex” (NATIONAL UNIVERSITY CORPORATION NARA INSTITUTE OF SCIENCE …, priority 2012, dated 2016)

Columns and labels:
Format in all cases: cell-based
Panc-1 = assay: Anticancer activity test (MTT viability), pancreatic cancer cell line Panc-1; conditions: for IC50: Panc-1 (n=4), drug incubation 48 hours, MTT
Experimental: 1. A pancreatic cancer cell line (Panc-1) was seeded in 96-well plates in duplicate at 1×10^3 cells/100 μL/well (a medium (RPMI1640) containing 10% FBS was used) and incubated at 37° C. and 5% CO2 for 68 hours.
(§1) 2. A preparation made by mixing a drug (CDDP ([PtCl2(NH3)2]) or Pd-Oqn) with the medium was dispensed into each well, and thereafter incubated at 37° C. and 5% CO2 for 48 hours.
(§2) 3. MTT was dispensed into each well at 10 μL/well, followed by incubation at 37° C. for 4 hours. Thereafter, the absorbance at 450 nm was measured with a microplate reader, and the viability was calculated.

MKN28 = assay: Anticancer activity test (MTT viability), gastric cancer cell line MKN28; conditions: MKN28 (n=4), drug incubation 48 hours
Experimental: (§3) 1. Gastric cancer cell lines MKN28 and MKN45 were individually seeded in 96-well plates in duplicate at 1×10^3 cells/100 μL/well (a medium (RPMI1640) containing 10% FBS was used) and incubated at 37° C. and 5% CO2 for 68 hours.
as §1, §2

MKN45 = assay: Anticancer activity test (MTT viability), gastric cancer cell line MKN45; conditions: for IC50: MKN45 (n=4), drug incubation 48 hours, MTT
Experimental: as §3, §1, §2

anticancer activity (IC50) relative to cisplatin (Panc-1; Panc-1, versus cisplatin) | anticancer activity (IC50) relative to cisplatin (MKN45; stomach cancer cells MKN45 and MKN28 together, versus cisplatin) | Compound | IC50 (Panc-1) | IC50 (MKN28) | IC50 (MKN45)
– | – | N.N.[Cl][Pt][Cl] [CDDP, [PtCl2(NH3)2], reference compound] | 124 µM | 87.2 µM | 28.2 µM
about two times higher | about two to five times higher | [Pd(GlcN=Oqn)Cl] [Pd-Oqn] | 63.1 µM | 17.5 µM | 11.7 µM
